Experiment [1] deals with SH-SY5Y, HeLa. Kind of experiment: MTT cell proliferation assay and trypan blue count (cell viability). Format: cell-based. Particulars: cells treated for 48 and 72 hours; read-out: IC50 values (inhibition of cellular proliferation, MTT assay and trypan blue assay). The method, boiled down: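 SH-SY5Y and HeLa cells, 8×10^5 per well, exposed 48 and 72 h with final DMSO ≤0.5%. Viability by MTT (250 μg/ml, 1 h, A570 after isopropanol/HCl) and by trypan blue count. IC50 from dose-response curves for some compounds.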
A general note: Tetrazolium assays rely on reduction of a dye to a coloured formazan, in cell work by metabolically active cells.

In experiment [2] the test system is DNBS-induced colitis in BALB/c mice. In words: Experimental colitis induced by DNBS. Particulars: i.p.; for MPO in the colon / NAMPT in the colon / TNFalpha in the colon / VEGF in the colon: DNBS-treated mice, between 20 mg/Kg and 500 mg/Kg, compared to untreated colitis mice; for protection from DNBS-induced colitis as assessed by the macroscopic damage score: doses of between 20 mg/Kg and 500 mg/Kg. Type of experiment: in vivo. The method, then:
Animal work was authorized by the local ethical committee for animal studies (Università del Piemonte Orientale). BALB/c mice (Harlan Nossan, Milan, Italy) were anesthetized by enflurane. Dinitrobenzene sulfonic acid (DNBS; 4 mg in 100 μl of 50% ethanol) was injected into the rectum through a catheter inserted 4.5 cm proximally to the anus. Carrier alone (100 μl of 50% ethanol) was administered in control experiments. Thereafter, the animals were kept for 15 minutes in a Trendelenburg position to avoid reflux. Treatment with either solvent alone or drugs was done immediately after induction and thereafter twice a day. […] On Day 4, the animals were weighed and anaesthetized with chloral hydrate, and the abdomen was opened by a midline incision. The colon was removed, freed from surrounding tissues, opened along the antimesenteric border, rinsed, weighed, and processed for histology, biochemical measurements and immunohistochemistry. Colon damage (macroscopic damage score) was evaluated and scored by two independent observers according to the following criteria: 0, no damage; 1, localized hyperemia without ulcers; 2, linear ulcers with no significant inflammation; 3, linear ulcers with inflammation at one site; 4, two or more major sites of inflammation and ulceration extending >1 cm along the length of the colon; and 5-8, one point is added for each centimeter of ulceration beyond an initial 2 cm. Biochemical and histological analysis also included TNFalpha measurements and myeloperoxidase (MPO) measurements by ELISA assay, and VEGF, NAMPT, COX-2 measurements by immunoblotting. (Esposito E, Mazzon E, Paterniti I, Dal Toso R, Pressi G, Caminiti R, Cuzzocrea S. PPAR-alpha Contributes to the Anti-Inflammatory Activity of Verbascoside in a Model of Inflammatory Bowel Disease in Mice. PPAR Res. 2010; 2010:917312).
As previously described, the colon of DNBS- or dextran treated animals was removed after the induction of colitis. Compounds of formula (I) were administered intraperitoneally (i.p.).

Experiment [3] addresses T1, NAMPT (Homo sapiens, UniProt P43490).
T1 construct: endogenous in cells; host or cells: SH-SY5Y and HeLa
Kind of experiment: Direct inhibition of NAMPT enzymatic activity (Cyclex NAMPT colorimetric Assay Kit). Particulars: as assessed with a cycling assay. Type of experiment: biochemical. The method, then:
Determination of the direct activity of compounds on NAMPT was performed using a commercial kit, Cyclex NAMPT colorimetric Assay Kit.

T1 sequence (P43490 whole entry): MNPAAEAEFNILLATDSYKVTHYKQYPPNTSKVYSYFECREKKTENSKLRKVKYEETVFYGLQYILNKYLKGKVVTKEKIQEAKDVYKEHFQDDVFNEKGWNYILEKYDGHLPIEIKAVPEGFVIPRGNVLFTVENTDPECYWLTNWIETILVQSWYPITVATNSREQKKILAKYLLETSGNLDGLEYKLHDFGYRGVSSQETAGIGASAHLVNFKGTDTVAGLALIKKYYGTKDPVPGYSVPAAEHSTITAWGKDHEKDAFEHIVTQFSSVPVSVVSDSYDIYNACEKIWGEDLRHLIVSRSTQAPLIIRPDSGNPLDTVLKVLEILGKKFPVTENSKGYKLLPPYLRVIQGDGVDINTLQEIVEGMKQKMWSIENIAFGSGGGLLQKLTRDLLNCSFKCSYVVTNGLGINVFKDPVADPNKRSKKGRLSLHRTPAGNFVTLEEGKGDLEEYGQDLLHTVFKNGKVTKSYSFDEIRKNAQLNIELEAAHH

As for `c1ccc(-c2ccccc2OCCCCCCn2cc(-c3cccnc3)nn2)cc1` [3-(1-(6-([1,1′-biphenyl]-2-yloxy)hexyl)-1H-1,2,3-triazol-4-yl)pyridine], in experiment [1], the IC50 was below 300 nM. Moreover, in experiment [2], the “MPO in the colon” value was “able to reduce”, the “NAMPT in the colon” value is listed as “able to reduce”, the “TNFalpha in the colon” value is on record as “able to reduce” and the “VEGF in the colon” value is “able to reduce”. Besides, in experiment [2], the “protection from DNBS-induced colitis as assessed by the macroscopic damage score” value is recorded as “able to protect”. The “inhibition of the enzymatic activity of NAMPT” value in experiment [3] is given as “able to inhibit”.

With `O=C(NCCCCCCCn1cc(-c2cccnc2)nn1)c1ccccc1-c1ccccc1` [N-(7-(4-(pyridin-3-yl)-1H-1,2,3-triazol-1-yl)heptyl)-[1,1′-biphenyl]-2-carboxamide], the IC50 in experiment [1] was below 300 nM. For the same compound, in experiment [2], the “MPO in the colon” value is “able to reduce”, the “NAMPT in the colon” value is given as “able to reduce”, the “TNFalpha in the colon” value is “able to reduce” and the “VEGF in the colon” value is on record as “able to reduce”. Moreover, the “protection from DNBS-induced colitis as assessed by the macroscopic damage score” value in experiment [2] is reported as “able to protect”. Further, the “inhibition of the enzymatic activity of NAMPT” value in experiment [3] is “able to inhibit”.

These data come from patent US20160075682A1, “INHIBITORS OF NICOTINAMIDE PHOSPHORIBOSYLTRANSFERASE, COMPOSITIONS, PRODUCTS AND USES THEREOF” (UNIVERSITÀ DEGLI STUDI DEL PIEMONTE ORIENTALE "AMEDEO …, priority 2013, published 2016).
